The text below walks through data of patent publication EP0998939A1, “Chalcone plant extracts for use in therapy” (THE SCHOOL OF PHARMACY, UNIVERSITY OF LONDON, priority 1998, dated 2000).

For one experiment, the system named is male Wistar rats. In words: UV-B induced erythema (dermatitis) in rat, epidermal thickness and number of epidermal cell layers. The format is in vivo. The following applies: five days; for No. of cells (epidermal proliferation as compared to the control, no treatment) / Thickness (epidermal thickening as compared to the control, no treatment): control = 100. As to the method:
Rat UV-B induced dermatitis is characterised by a brownish red lesion with scab formation. Histologically, microvascular dilation, intraepidermal accumulation ofleukocytes and hyperproliferation of epidermal cells are all very similar to the symptoms of psoriasis in man (Nakaguma,H., Int. J.ofExp.Path, 76:65-73, 1995) • 1. Hair on the dorsal skin of male Wistar rats (180g) was clipped and shaved, whilst the rats were under anaesthesia, 24 hours prior to the experiment. • 2. The rats were covered by a black plastic sheeting, with two rectangular holes (about 1cm^2) cut out, thus allowing two exposure sites on the dorsal skin whilst protecting the rest of the animal. • 3. The rats were then exposed to UV-B light (302nm) at a distance of 10cm for six minutes and thirty seconds. The total W-B exposure was 2.4J/cm^2 as measured using a UV-X radiometer. • 4. The test compound was then placed onto one of the exposed areas and an unexposed area at a concentration of 100µg/5µl, in a suitable vehicle solution. • 5. Application of the test compound was repeated for five days. • 6. Histological post-mortem sections were taken on the fifth day, and stained using haematoxylin and eosin. The number ofepidermal cell layers and the epidermal thickness was counted and measured at random. Five animals were used per test group.

The test system of experiment [1] is swiss 3T3 mouse fibroblast cells. Kind of experiment: Cell culture 3[H] thymidine assay, Example 6.1 cytotoxicity testing (normal cell growth). The experiment is classed as cell-based. The settings on record: cytotoxicity, no TPA. The procedure: (§1) Cells used were swiss 3T3 mouse fibroblast cells • 1. 6 x 24 well plates were required for each experiment. • 2. Cells were removed from the standard tissue culture flask using a 1% solution of EDTA and resuspended in 10 ml of media and pipetted off into a falcon tube. • 3. The cells were then spun for 5 minutes at about 2,000rpm. • 4. The existing media was removed, and the cells again resuspended in 10ml of 10% foetal calf serum (FCS) and vortexed. • 5. The 10ml of suspension was then added to 140ml of media and mixed in a sterile jar. 1ml of the media cell suspension was then placed into each well and the plates incubated until confluent, three days .
(§2) • 1. [PCl]Cells were dosed with the test compounds (as specified below) 2 days prior to the addition of 3 [H]thymidine. The cells could only be dosed with a 0.5% solution, 5µl test solution in 1ml cellsuspension i.e. 5µl in 1ml, (TPA - 0.5µM). • 2. 0.5µl of 3[H] thymidine was added per well, therefore 72µl was added to 144µl of media (1%F.C.S.) to dose the corresponding six plates. • 3. 100µl of the media was taken to measure the measure the radioactive dose […], and added to 4ml of scintillation fluid. • 4. The radioactive media was then transferred to sterile specimen tubes and dosed with the test compounds before adding to the cells. • 5. After four hours ofbeing pulsed with radiolabelled thymidine (0.5µCi/ml) the media was removed and washed down the sink. • 6. The cells were washed twice with ice cold phosphate buffered saline (PBS), 0.5ml per well, and incubated for 30 min using ice cold 5% trichloroacetic acid (TCA) ( 1ml) per well at room temperature. • 8. The TCA was then removed and another 1ml of 5% TCA was added for 5 minutes. After the TCA was removed and 0.3NaOH and 0.1% sodium dodecyl sulphate added to each well for 30 minutes (1ml/well). • 9. The contents of each well was added to scintillation vials containing 4ml of scintillation fluid and each sample counted for four minutes using a scintillation counter. Three different assays were carried out using this protocol; • 6.1. Cytotoxicity testing of the compounds. After 48 hours of incubation and the cells were confluent a predetermined quantity of the test compounds was added to the cells. • 6.2. Inhibition of TPA induced proliferation. After 48 hours a preditermined quantity concentration of the test compounds was added to the cells as well as 0.5um of TPA. […] Inhibition of TPA induced proliferation. After 48 hours a predetermined quantity concentration of the test compounds was added to the cells for 24 hours, at 72 hours the media was changed again to contain both test compound and 0.5µM of the TPA. The objective of this experiment was to observe whether the prior incubation with the test compound had any effect on the TPA induced proliferation of the cells.

The test system is the same in experiment [2]. In words: Cell culture 3[H] thymidine assay, Example 6.2 inhibition of TPA induced proliferation (compound added together with TPA). The format is cell-based. The following applies: with 0.5µM TPA. As to the method:
as §1, §2

Experiment [3] has as its system human polymorphonuclear neutrophils. The settings on record: properties associated with inflammatory processes; cited from earlier work.
[4] abbreviates: Active Compound Only, unexposed area, 100µg/5µl.
Where [5] appears, read: UV Exposure + Active Compound versus UV Exposure, 100µg/5µl.
Where [6] appears, read: UV Exposure + Active Compound, 100µg/5µl topical.

On to `O=C(/C=C/c1ccc(O)cc1)c1ccc(O)cc1O` [Isoliquiritigenin, isoliquiritigenin], for which the “No. of cells (epidermal proliferation as compared to the control, no treatment)” value with male Wistar rats (setting [4]) stood at 103%; with male Wistar rats (setting [6]) it was 119%. The results for the “Thickness (epidermal thickening as compared to the control, no treatment)” value in the experiment on male Wistar rats (setting [4]) and in the experiment on male Wistar rats (setting [6]) were 102% and 116%, respectively. Also, the “Percentage inhibition of epidermal proliferation (No. of cells, in brackets)” value in the experiment with male Wistar rats (setting [5]) is “(77) %”. The “Percentage inhibition of epidermal thickening (in brackets)” value in the experiment with male Wistar rats (setting [5]) is “(71) %”. Also, the “Percentage Inhibition of 3T3 Swiss Fibroblast Growth, Example 6.1” value in experiment [1] (Concentration 0.01 µg) came to 20%; in experiment [1] (Concentration 0.1 µg), 18%; in experiment [1] (Concentration 1 µg), 32%; in experiment [1] (Concentration 10 µg) it was 32%; in experiment [1] (Concentration 20 µg), 54%. Further, the “Percentage Inhibition of 3T3 Swiss Fibroblast Growth, Example 6.2” value in experiment [2] (Concentration 0.01 µg) is 6%; in experiment [2] (Concentration 0.1 µg), “+4%”; in experiment [2] (Concentration 1 µg), 4%; in experiment [2] (Concentration 10 µg) it was 28%; in experiment [2] (Concentration 20 µg), 29%. Also, the “effect on degranulation in human polymorphonuclear neutrophils” value in experiment [3] was “had no effect”.
